{"source": "patent US4515951A", "about": "“Preparation of 5,6,7,7a-tetrahydro-4H-thieno[3,2-c]pyridin-2-one compounds” (Sanofi, priority 1980, dated 1985)", "key": {"in vivo": {"experiment": "in vivo", "conditions": "mouse, iv", "description": "This study was concerned with the acute, chronic, sub-chronic and delayed toxicities."}, "[1]": {"test_system": "platelet aggregation by ADP", "experiment": "inhibiting action on platelet aggregation by ADP (ADP TEST), plasma of orally treated rats", "assay_type": "in vivo, Wistar rats", "conditions": "Rattus norvegicus, po, 3 h, read-out: Percentage inhibition of platelet aggregation (ADP test)", "method": "(§1) A sample of blood is taken from the jugular vein of Wistar rats, which have previously been treated with the compound to be tested. From this blood, which is citrate-treated and centrifuged, there is reconstituted a plasma containing 600,000±20,000 platelets per mm^3, which is employed in all the aggregation measurements.\n(§2) 0.4 ml. of plasma is treated in a siliconised tube provided with a bar magnet which is also siliconised. The tube is introduced into an aggregometer connected to an apparatus with which variations in optical density can be recorded. When the light transmission has reached a stable value, 0.5 ml. of a solution containing […] of ADP (adenosine diphosphate)is introduced into the tube.\n(§3) Platelet aggregation then causes an increase in light transmission, followed by a reduction in light transmission due to the subsequent disaggregation stage.\n(§4) The maximum variation in optical density thus determined relative to that of a plasma free of platelets characterises the intensity of aggregation.\n(§5) The measurements are carried out during the 2 hours which follow the taking of the blood sample, this sample being taken 3 hours after treatment with the derivative to be tested.\n(§6) Groups of 20 rats were used. Each group received a single dose of the compound to be tested, administered orally, the same compound being administered at different doses ranging from 5 mg./kg. to 100 mg./kg.\n(§7) The results obtained are given in the following Tables II and III, which show the percentage inhibition of platelet aggregation obtained relative to the control experiment, 3 hours after treatment with the compound to be tested."}, "[2]": {"test_system": "platelet aggregation by collagen", "experiment": "inhibiting action on platelet aggregation by collagen (COLLAGEN TEST), plasma of orally treated rats", "assay_type": "in vivo, Wistar rats", "conditions": "Rattus norvegicus, po, 3 h, read-out: Percentage inhibition of platelet aggregation (collagen test)", "method": "as §1, §2, §3, §4, §5\nThe ADP solution is replaced by a solution of collagen (extracted from cattle tendons).\nas §6, §7"}, "[3]": {"test_system": "platelet aggregation induced by ADP", "experiment": "kinetic study of platelet aggregation induced by ADP (Born's nephelometric method, Bryston aggregometer), intraperitoneal", "assay_type": "in vivo", "conditions": "rats", "method": "A further experiment was carried out, relating to the kinetic study of the compounds of the present invention.\nThe blood sample is taken 10 minutes and 60 minutes after this administration and is centrifuged to obtain a plasma enriched in platelets.\nThe platelet aggregation in the plasma, induced by ADP is measured in a Bryston aggregometer, using Born's nephelometric method."}, "experimental thrombosis": {"test_system": "experimental thrombosis", "experiment": "anti-thrombosis activity, experimental thrombosis caused by extracorporal circulation (Umetsu and Sonoi)", "assay_type": "in vivo, rats", "conditions": "control (5% gum arabic) 30.41", "method": "This activity was studied by the experimental thrombosis method caused by extracorporal circulation, described by Umetsu and Sonoi (Thrombos. Haemost., 39, […]).\nThe left jugular vein and the right external carotid are exposed in rats anaesthetised by an intraperitoneal injection of pentobarbital. A shunt is provided which consists of a central catheter and two lateral catheters. A natural white silk thread is introduced into the central part and the circulation is restarted for 20 minutes. After stopping the circulation by clamping, the thread is gently withdrawn and weighed immediately.\nTreatment was carried out for 48 hours, 24 hours and 2 hours before the start of the blood circulation in shunt.\nThe test compounds were administered orally to different groups of animals in the form of a suspension in 10 ml. of 5% gum arabic/kg., the doses used being 12.5 mg./kg., 25 mg./kg., 50 mg./kg., 100 mg./kg. and 200 mg./kg."}}}
{"compound": "O=C1C=C2CN(Cc3ccccc3Cl)CCC2S1", "note": "(centres unmarked) [Derivative 1, 5-(o-Chlorobenzyl)-5,6,7,7a-tetrahydro-4H-thieno-[3,2-c]pyridin-2-one]", "values": [{"measurement": "LD50 at 24 h", "setting": "in vivo", "result": 113, "unit": "mg/kg"}, {"measurement": "inhibition at 5 mg/kg", "setting": "[1]", "result": 51, "unit": "%"}, {"measurement": "inhibition at 12.5 mg/kg", "setting": "[1]", "result": 83.6, "unit": "%"}, {"measurement": "inhibition at 25 mg/kg", "setting": "[1]", "result": 83.7, "unit": "%"}, {"measurement": "inhibition at 50 mg/kg", "setting": "[1]", "result": 84, "unit": "%"}, {"measurement": "inhibition at 100 mg/kg", "setting": "[1]", "result": 84.1, "unit": "%"}, {"measurement": "inhibition at 5 mg/kg", "setting": "[2]", "result": 16.8, "unit": "%"}, {"measurement": "inhibition at 12.5 mg/kg", "setting": "[2]", "result": 46.8, "unit": "%"}, {"measurement": "inhibition at 25 mg/kg", "setting": "[2]", "result": 86.7, "unit": "%"}, {"measurement": "inhibition at 50 mg/kg", "setting": "[2]", "result": 89.6, "unit": "%"}, {"measurement": "inhibition at 100 mg/kg", "setting": "[2]", "result": 89.8, "unit": "%"}, {"measurement": "percentage inhibition as a function of time (platelet aggregation, ADP)", "setting": "[3]; 10 minutes after 100 mg/kg intraperitoneal in propylene glycol", "result": 42, "unit": "%"}, {"measurement": "percentage inhibition as a function of time (platelet aggregation, ADP)", "setting": "[3]; 60 minutes after 100 mg/kg intraperitoneal in propylene glycol", "result": 97, "unit": "%"}, {"measurement": "Average weight of the thrombi", "setting": "experimental thrombosis; 12.5 mg/kg oral, 48, 24 and 2 hours before", "result": 27.45, "unit": "mg"}, {"measurement": "Average weight of the thrombi", "setting": "experimental thrombosis; 25 mg/kg oral, 48, 24 and 2 hours before", "result": 12.21, "unit": "mg"}, {"measurement": "Average weight of the thrombi", "setting": "experimental thrombosis; 50 mg/kg oral, 48, 24 and 2 hours before", "result": 6.01, "unit": "mg"}, {"measurement": "Average weight of the thrombi", "setting": "experimental thrombosis; 100 mg/kg oral, 48, 24 and 2 hours before", "result": 4.76, "unit": "mg"}]}
